Laboratory results reported in patent US20170354600A1, “COMPOSITION AND METHOD FOR STABILIZING GSH” (priority 2016, published 2017).
Where two headings read alike, the source gives them in different places.

Assays:
[1] = GSH retention in solid composition exposed to hydrogen peroxide oxidation (Ellman colorimetric, 405 nm); conditions: 0.1 mmol GSH, 1 ml hydrogen peroxide 1.0% w/v
Description: 0.1 mmol of reduced glutathione (96%) was premixed with 5 g of liquid sorbitol (96%, Roquette Corp) using magnetic stirring for 15 minutes at room temperature. Then, as described in Table 2, an amount of each food grade antioxidant were separately added for each test, followed by an additional 10 minutes of stirring. The mixture was then homogeneously dispersed in 100 g of powder sorbitol using mechanical high shear blending for 3 minutes. 1 ml of hydrogen peroxide solution 1.0% w/v was added to each test and a continue mixing for additional 1 minute. A control test with no antioxidant was also performed.
After 6 hours of exposure to oxidation, 5 g of the treated solid mixture was added to 30 ml of 0.1M disodium phosphate/0.001 mM EDTA pH 8.0 buffer solution. This solution was then extracted 3 times with chloroform using a separation funnel. The remaining aqueous phase was added to 100 ml volumetric flask and the volume was completed using 0.1M disodium phosphate/0.001 mM EDTA pH 8.5 buffer solution. The GSH present in this solution was quantify by colorimetric method at 405 nm using Elman's reagent, 5,5′-Dithio-bis-(2-nitrobenzoic acid), using L-glutathione 99%, provided by Sigma Aldrich, as standard. The retaining percentage for each solid composition was calculated and expressed as percentage values in Table 3. […]

[2] = GSH retention in liquid composition exposed to hydrogen peroxide oxidation (Ellman colorimetric, 405 nm); conditions: 0.1 mmol GSH, pH 8.0 buffer, 1 ml hydrogen peroxide 0.5% w/v
Description: 0.1 mmol of reduced glutathione (Kohjin Co. Ltd) was premixed with 5 g of liquid sorbitol (96%, Roquette Corp) using magnetic stirring for 10 minutes. Then, as described in Table 5, incremental concentrations of food grade antioxidants where added followed by additional 10 minutes of stirring. The mixture was then added to 100 g of 0.1M disodium phosphate/0.001 mM EDTA pH 8.0 buffer solution, then 1 ml of hydrogen peroxide solution 0.5% w/v was added to each test. A control test with no antioxidant was also performed.
After 1 hour of exposure to oxidation, 5 grams of the treated solution was added to 30 ml of 0.1M disodium phosphate/0.001 mM EDTA pH 8.5 buffer solution. This solution was then extracted 3 times with chloroform using a separation funnel. The remaining aqueous phase was added to a 100 ml volumetric flask and the volume was completed using 0.1M disodium phosphate/0.001 mM EDTA pH 8.0 buffer solution. The GSH present in this solution was quantify by colorimetric method at 405 nm using Elman's reagent, 5,5′-Dithio-bis-(2-nitrobenzoic acid), using L-glutathione 99%, provided by Sigma Aldrich, as standard. The retaining percentage for each solid composition was calculated and expressed as percentage values in Table 6. […]

[3] = GSH, cited from earlier work

SMILES | Retention percentage after 6 hours of oxidation in solid compositions ([1]; 0.001 mmol antioxidant) | Retention percentage after 6 hours of oxidation in solid compositions ([1]; 0.01 mmol antioxidant) | Retention percentage after 6 hours of oxidation in solid compositions ([1]; 10 mmol antioxidant) | Retention percentage after 6 hours of oxidation in solid compositions ([1]; 18.18 mmol antioxidant) | Retention percentage after 1 hour of oxidation in liquid composition ([2]; 0.001 mmol antioxidant) | Retention percentage after 1 hour of oxidation in liquid composition ([2]; 0.01 mmol antioxidant) | Retention percentage after 1 hour of oxidation in liquid composition ([2]; 1 mmol antioxidant) | Retention percentage after 1 hour of oxidation in liquid composition ([2]; 10 mmol antioxidant) | Half life ([3]; pH 6.5, 20° C., 0.1M K2HPO4/KH2PO4 Buffer) | Half life ([3]; pH 7.5, 20° C., 0.1M K2HPO4/KH2PO4 Buffer) | Half life ([3]; pH 8.5, 0° C., 0.1M K2HPO4/KH2PO4 Buffer) | Half life ([3]; pH 8.5, 20° C., 0.1M K2HPO4/KH2PO4 Buffer + 0.1 nM Cu + 2) | Half life ([3]; pH 8.5, 20° C., 0.1M K2HPO4/KH2PO4 Buffer + 1.0 nM EDTA) | Half life ([3]; pH 8.5, 20° C., 0.1M K2HPO4/KH2PO4 Buffer) | Half life ([3]; pH 8.5, 40° C., 0.1M K2HPO4/KH2PO4 Buffer)
CC(=O)Oc1c(C)c(C)c2c(c1C)CC[C@@](C)(CCC[C@H](C)CCC[C@H](C)CCCC(C)C)O2 [Vitamin E, DL alpha tocopheryl acetate] | 24.16% | 31.04% | 45.19% | 39.61% | 10.39% | 16.88% | 30.39% | 41.69% |  |  |  |  |  |  | 
CC(=O)OC/C=C(C)/C=C/C=C(C)/C=C/C1=C(C)CCCC1(C)C [Vitamin A, Vitamin A acetate] | 28.57% | 33.77% | 51.04% | 46.36% | 14.29% | 21.95% | 33.25% | 49.79% |  |  |  |  |  |  | 
O=C1O[C@H]([C@@H](O)CO)C(O)=C1O [Ascorbic acid, L-Ascorbic acid] | 0.00% | 14.29% | 28.96% | 18.18% | 0.00% | 0.00% | 17.92% | 32.08% |  |  |  |  |  |  | 
CCCCCCCCCCCCCCCC(=O)OC[C@H](O)[C@H]1OC(=O)C(O)=C1O [Ascorbyl palmitate] | 18.18% | 25.97% | 46.10% | 36.88% | 0.00% | 13.38% | 18.83% | 36.36% |  |  |  |  |  |  | 
N[C@@H](CCC(=O)N[C@@H](CS)C(=O)NCC(=O)O)C(=O)O [GSH, Reduced glutathione] |  |  |  |  |  |  |  |  | 16 min | 9 min | 8 min | 1.2 min | 70 min | 1.3 min | 0.2 min
